Source: patent US7687079B2, “Methods of treating ileus” (priority 2002, dated 2010)
“Also recorded” adds a separate entry of the source.

Assays:
[1] = test system: rats that underwent small bowel transplantation; experiment: intestinal transit of orally fed fluorescein-labeled dextran after SITx; format: in vivo, rat; details: for distribution of fluorescent label along the gastrointestinal tract: 2 hours after oral feeding
Protocol: To determine whether CO is protective against ileus associated with small bowel transplantation, orthotopic SITx was performed in syngenic Lewis rats. SITx with caval drainage was performed using a previously described procedure. […] The graft was perfused via the aortic segment with 5 ml chilled Ringer's lactate solution, and the intestinal lumen was irrigated with 20 ml of cold saline solution containing 0.5% neomycin-sulfate (Sigma, St. Louis, Mo.). End-to-side anastomoses between the graft aorta and the recipient infrarenal aorta, and between the graft portal vein and recipient vena cava, were performed with 10-0 Novafil™ suture. The cold ischemic time was 1 hour. The entire recipient intestine was removed and the enteric continuity was restored by proximal and distal end-to-end intestinal anastomoses. Recipient animals were given 20 mg/day prophylactic cefamandole nafate for 3 postoperative days. Transplanted recipients were given water 3 hours after surgery, and were fed 24 hours after surgery.
Four groups of animals were examined in this study, two of which received a SITx. Group 1 consisted of unoperated normal rats. Group 2 animals were exposed to CO with no surgery. In Group 3, syngeneic SITx were performed and the recipients kept in room air. Group 4 consisted of SITx recipients that were placed in the CO chamber for 1 hour before surgery and then re-exposed to CO immediately following surgery until sacrificed. In both Groups 3 and 4, normal LEW rats served as donors.
The animals were exposed to CO at a concentration of 250 ppm. Briefly, 1% CO in air was mixed with air (21% oxygen) in a stainless steel mixing cylinder and then directed into a 3.70 ft^3 glass exposure chamber at a flow rate of 12 L/min. A CO analyzer (Interscan, Chatsworth, Calif.) was used to measure CO levels continuously in the chamber. CO concentrations were maintained at 250 ppm at all times. The animals were supplied food and water during the exposures.
Intestinal transit was measured in controls and manipulated animals 48 hours postoperatively by evaluating the intestinal distribution of fluorescein-labeled dextran (Molecular Probes). Animals were lightly sedated with inhaled isofluran and fed orally with labeled dextran (200 μl of 6 mg/ml in saline). Two hours after administration, the animal was sacrificed and the entire bowel from stomach to distal colon was collected. […] After pelleting the intestinal tissue and chyme, aliquots of the supernatant were read in duplicate on a plate reader (CytoFluor II; excitation wavelength 530 nm and emission 590 nm) for quantification of the fluorescent signal in each bowel segment. […] Intestinal transit was determined for statistical analysis by calculating the geometric center (GC).

IL-10 mRNA = IL-10 mRNA in muscularis after IM (real time RT-PCR); format: in vivo, mouse
Protocol: Pro- and anti-inflammatory gene expression was determined by real time RT-PCR. The small intestinal muscularis externa was collected at 4 time points (3, 6, 12, and 24 hr) postoperatively and snap frozen in liquid nitrogen. Total RNA extraction was performed using the guanidium-thiocyanate phenol-chloroform extraction method as described in Eskandari et al. (Id.) RNA pellets were resuspended in RNA-secure resuspension solution (Ambion Inc., Austin, Tex.), followed by removal of potential contaminating DNA by treatment with DNase I (DNA-Free Kit, Ambion Inc., Austin, Tex.). Equal aliquots (5 μg) of total RNA from each sample were quantified by spectrophotometry (wavelength […]). Peak mRNA expression was quantified in duplicate by SYBR Green two-step, real-time RT-PCR. β-actin was used as the endogenous reference. Aliquoted RNA (40 ng) was subjected to first-strand complementary DNA (cDNA) synthesis using random hexamers (PE applied Biosystems, Foster City, Calif.) and Super Script II (Life Technologies, Rockville, Md.). Primers were taken from the literature or designed according to published sequences (Table 3). PCR reaction mixture was prepared using SYBR Green PCR Core Reagents (PE Applied Biosystems). Each sample was estimated in duplicate using the conditions recommended by the manufacturer. Real-time PCR data were plotted as the ΔRn fluorescence signal versus the cycle number. An arbitrary threshold was set to the midlinear portion of the log ΔRn cycle plot. The threshold cycle (CT) is defined as the cycle number at which the ΔRn, crosses this threshold. Quantification of mRNA expression was normalized to β-actin and calculated relative to control using the comparative CT method.
To exclude PCR amplification of contaminating genomic DNA, RT-negative controls (samples containing RNA which was not reverse transcribed) were included in each PCR reaction. Melting curve analyses were performed for each reaction to ensure amplification of specific product. In addition, gel electrophoresis were performed for the primers to confirm the absence of non-specific bands and that the amplicons were of the correct size. PCR amplification efficiency of each target cDNA was measured by determining the colinearity of serial dilutions. Serial 3-fold dilutions of cDNA were performed in triplicate for all primers. Standard curves were generated by plotting CT values against relative input copy number to validate the primers. Slopes of the standard curves of −3.2±0.3 with correlation coefficients of 0.99 were considered to be acceptable, having corresponding efficiencies of 100±10%. Analyses of Mediator Release from Intestinal Muscularis

[2] = test system: MPO-positive leukocytes in intestinal muscularis; experiment: myeloperoxidase histochemistry, leukocyte recruitment into intestinal muscularis after SITx; format: in vivo, rat
Protocol: Muscularis whole mounts were prepared from the mid small intestine collected 24 hours post-operatively. Segments of intestine were immersed in KRB in a Sylgaard™-lined glass dish and pinned without stretching along the mesenteric border. The length and width of the segments were measured with a caliper. The […] was then opened along the mesenteric border and stretched to 150% of the length and 250% of the width. The mucosa and submucosa were removed using fine forceps, and the remaining tissue fixed in 100% denatured ethanol for 30 minutes. […] Tissues were mounted on glass slides using Gel/Mount™ (Biomedia Corp., Foster City, Calif.), cover-slipped and inspected by light microscopy (Nikon FXA, Fryer, Huntley, Ill.) at a magnification of 200×. Numbers of MPO-positive PMN's infiltrating the muscularis extemae were determined from the mean counts collected from five to six adjacent optical fields centered between the mesenteric and anti-mesenteric borders.

Compound: [C-]#[O+] [CO, carbon monoxide]
- intestinal transit ([1]; SITx + CO, Table 2): normal
- intestinal transit (Geometric Center) ([1]; SITx rats, inhaled CO 250 ppm, 48 hours postoperatively): significantly improved
- distribution of fluorescent label along the gastrointestinal tract ([1]; transplanted animals treated with CO): small bowel segments 6, 7 and 8
- distribution of fluorescent label along the gastrointestinal tract ([1]; unoperated control rats treated with CO): small bowel segments 9 and 10, and in the cecum
- IL-10 gene expression relative to controls (IL-10 mRNA; CO treated manipulated animals, 3 hr time point): 43 fold
- IL-10 gene expression, increase over manipulation alone (IL-10 mRNA; IM + CO vs IM, 3 hr): 300%
- IL-10 message (IL-10 mRNA; IM + CO vs IM, 3 hr but not 6 hr after surgery): increased
- IL-10 expression (IL-10 mRNA; control mice, CO inhalation alone, 3 and 6 hr): significant increase; also recorded: significantly increased
- MPO-positive cells ([2]; CO-treated control rats (unoperated)): rare
- mean number of MPO positive cells ([2]; SITx + CO, 24 hours after SITx, not statistically significant (p=0.08, n=6)): decreased
- Inflammatory infiltrates ([2]; SITx + CO, Table 2): 21 ± 3.2 /200x field
